Laboratory results published in patent US20240252674A1, “AGENTS FOR DIRECTED CONJUGATION TECHNIQUES AND CONJUGATED PRODUCTS” (Biohaven Therapeutics Ltd., priority 2021, published 2024).
Like-named read-outs stand apart in the source and are kept apart here. Where no end group is shown, it is not given here.

What was measured:
IgG = experiment: Binding of peptide IgG binder (directing group) to IgG; settings: Kd of the directing group included in the peptide IgG binder
Immunoglobulin G [1] = molecular target: Immunoglobulin G
Immunoglobulin G [2] = molecular target: Immunoglobulin G; remark: listed apart in the source

| Molecule | Kd (IgG) [nM] | other results |
| --- | --- | --- |
| GSYWYDVWF peptide [linear peptide IgG binder] | 600 |  |
| DCAWXLGELVWCT peptide [cyclic peptide IgG binder] | 15 |  |
| cyclic peptide IgG binder (DCAWXLGELVWCT peptide) |  | Kd (Immunoglobulin G [1]): 15 nM |
| GSYWYDVWF (not fully specified) [linear peptide IgG binder (… peptide)] |  | Kd (Immunoglobulin G [2]): 600 nM |
